Test results: patent publication US20090054333A1, “Peptide inhibitors of cyclin-dependent kinase activity and uses thereof” (priority 2006, published 2009)

B1: Spacer: full-length pRb2/p130 spacer domain, amino acids 616-828 (SEQ ID NO:20) (protein, listed as Homo sapiens)
chain: VPTCEEVMPPQNLERADEICIAGSPLTPRRVTEVRADTGGLGRSITSPTTLYDRYSSPPASTTRRRLFVENDSPSDGGTPGRMPPQPLVNAVPVQNVSGETVSVTPVPGQTLVTMATATVTANNGQTVTIPVQGIANENGGITFFPVQVNVGGQAQAVTGSIQPLSAQALAGSLSSQQVTGTTLQVPGQVAIQQISPGGQQQKQGQSVTSSSN

Key:
[1] = system: A549 non-small cell lung cancer cell line; experiment: treatment of tumor growth in vivo, A549 tumor xenografts; set-up: species or system athymic nude mice (CD1, nu/nu); conditions: A549 xenograft in nude mice; 50 μl of 1.5 mM peptide injected into the tumoral region
Method: Cell Culture The A549 (wt p53, and wt RB) non-small cell lung cancer cell line was cultured in Ham's F-12 with NaHCO3 (0.75 g NaHCO3/500 ml of Ham's F-12) and 10% (vol/vol) fetal bovine serum (FBS). The cells were cultured at 37° C. in a humidified incubator containing 5% CO2. Cells were harvested, when they reached 70-80% confluence.
Preparation of Tumor Xenografts in Immunodeficient Mice: The animal experiments were carried out in accordance with the Guidelines for the Care and Use of Laboratory Animals (National Institute of Health publication number 85-23) and the institutional guidelines of Temple University. 4-6 week-old female athymic nude mice (CD1, nu/nu) were bought from Charles River Laboratory (Wilmington, Mass.). About a week after the mice arrived, the A549 cells were harvested and then suspended in unsupplemented culture medium without FBS. After the mice were anesthetized by isoflurane inhalation, 4×10^6 cells in a final volume of 100 μl were injected subcutaneously into the right flank of each mouse by using 1-cc syringes with 25.5-gauge needles.
In Vivo Treatments: The length and width of each tumor were measured every time in triplicates by using a Vernier caliper. […]
For each peptide type, three mice were treated. […] The tumor sizes were measured before each treatment. Tumor volumes were calculated and plotted on a graph. […]

NIH/3T3 cells = experiment: colony formation assay; type: cell-based; conditions: NIH/3T3 transfected with 5 μg pEF6/V5 construct; blasticidin S selection; colonies counted after eight days
Method: Colony formation assay: The effects of the pRb2/p130 spacer domain and 39 aa small peptide overexpression on cellular growth was examined by colony formation assays. Exponentially growing NIH/3T3 cells were seeded in 100-mm dishes at a density of 5×10^5 cells per 100 mm dish the day before transfection. Cells were transfected with 5 μg of pEF6/V5-spacer, pEF6/V5-Spa310 or the control vector pEF6/V5 carrying the brasticidin S-resistant gene (bsr) as a selectable marker gene. For selection, blasticidin S hydrochloride (Funakoshi, Tokyo, Japan) was added to the culture medium 48 h after transfection, at a final concentration of 10 μg/mL. After 6 days, 1×10^3 of blasticidin S-resistant cells in each well were plated in triplicate in 60-mm dishes, in order to evaluate their colony-forming ability. Cells were then incubated at 37° C. for eight days in a selecting medium containing blasticidin S hydrochloride at a final concentration of 10 μg/mL. Colonies, defined as groups of a minimum of 50 cells, were counted after staining with 2% methylene blue in 95% ethanol.
As presented in FIGS. 4a and 4b, the spacer region caused a decrease on the ability of the cells to form colonies of about 50% and the Spa310 of about 60%. […] After six days, an equal number of resistant cells were plated in 60-mm dishes and colony-forming ability was evaluated after eight days of continuous selection. […]

Molecule | tumor growth [1] | decrease on the ability of the cells to form colonies (NIH/3T3 cells)
Spa310: pRb2/p130 amino acids 641-679 (39 amino acids long), SEQ ID NO:3; LTPRRVTEVRADTGGLGRSITSPTTLYDRYSSPPASTTR (listed as Homo sapiens) | does suppress the tumor growth | about 60%
B1 |  | about 50%
